The source of these data is US20220348590A1, “CYCLOOXYGENASE-2 INHIBITORS AND USES THEREOF” (The Board Institute, Inc., priority 2019, published 2022).

SMILES strings stand for the structures. Read-outs that look alike come from different tables or passages of the source.

The target in this assay is T1, human recombinant COX2 (hCOX2) (UniProt P35354).
T1 sequence (P35354 1-604): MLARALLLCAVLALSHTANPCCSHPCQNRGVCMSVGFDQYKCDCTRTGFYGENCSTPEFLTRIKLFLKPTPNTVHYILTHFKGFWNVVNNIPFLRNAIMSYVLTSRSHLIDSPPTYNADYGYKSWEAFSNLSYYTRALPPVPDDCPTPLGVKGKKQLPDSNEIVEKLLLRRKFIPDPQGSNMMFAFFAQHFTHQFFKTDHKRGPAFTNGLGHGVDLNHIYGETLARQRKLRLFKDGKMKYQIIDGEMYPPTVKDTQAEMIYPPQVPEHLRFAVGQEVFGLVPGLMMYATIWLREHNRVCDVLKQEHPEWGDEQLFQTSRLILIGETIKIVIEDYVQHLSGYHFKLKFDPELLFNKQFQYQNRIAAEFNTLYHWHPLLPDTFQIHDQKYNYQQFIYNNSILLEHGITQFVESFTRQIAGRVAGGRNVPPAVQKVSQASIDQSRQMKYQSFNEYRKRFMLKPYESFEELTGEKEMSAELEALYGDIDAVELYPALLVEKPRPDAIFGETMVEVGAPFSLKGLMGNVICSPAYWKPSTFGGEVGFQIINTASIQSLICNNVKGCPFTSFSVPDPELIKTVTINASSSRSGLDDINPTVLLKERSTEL
The assay can be described thus: LCMS-based COX2 enzymatic inhibition assay (PGE2 quantification). The format is biochemical. Further details: COX2 2 minutes pge2/pge2d4 area ratio Avg; other: 2 minutes; readout pge2/pge2d4 area ratio; average; COX2 2 minutes pge2/pge2d4 area ratio Avg; LLE; average LLE; COX2 2 minutes pge2 area (counts) Avg; readout pge2 area (counts); other: 2 min; "ovine COX2 (oCOX2), human recombinant COX2 (hCOX2)". The settings on record: for IC50: average. An outline of the steps: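 Ovine COX-1 (0.1 μg) or human recombinant COX2 (0.2 μg) in 100 mM Tris.HCl pH 8.0 with hematin and epinephrine, preincubated with inhibitor 10 min at 37 °C. Reaction with 5 μM arachidonic acid stopped after 2 min with HCl; PGE2 quantified by LC-MS-MS. IC50 from 12 concentrations in triplicate.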

The mark [1] stands for this setting: 2 minutes, readout pge2/pge2d4 area ratio, average LLE.
[2] abbreviates: 2 minutes, readout pge2/pge2d4 area ratio, read-out: COX2 2 minutes pge2/pge2d4 area ratio Avg. IC50.
Setting [3] is: 2 minutes, readout pge2 area (counts), average LLE.
Setting [4] is: 2 minutes, readout pge2 area (counts), read-out: COX2 2 minutes pge2 area (counts) Avg. IC50.
Setting [5] is: read-out: COX2 2 minutes pge2/pge2d4 area ratio Avg. IC50 (microM), 2 minutes, readout pge2/pge2d4 area ratio.

As for `CS(=O)(=O)c1ccc(-c2cncc(SCc3cnoc3)n2)cc1` [Compound 213], the “COX2 2 minutes pge2/pge2d4 area ratio Avg. LLE” value under setting [1] was found to be 4.567. Moreover, the IC50 runs as follows: under setting [2], 1.5 µM; under setting [4], 1.32 µM. In addition, the “COX2 2 minutes pge2 area (counts) Avg. LLE” value (from here on “COX2 2 minutes pge2 area”) under setting [3] was 4.663.
Taken in the same sequence, the figures for `CS(=O)(=O)c1ccc(-c2cnc(C(N)=O)c(NCc3cccs3)n2)cc1` [Compound 219] were 4.686, 1.63 µM, 1.69 µM and 4.669.
With `CS(=O)(=O)c1ccc(-c2cncc(C#Cc3cccs3)n2)cc1` [Compound 320], the IC50 under setting [5] is 5.2 µM.
`CS(=O)(=O)c1ccc(-c2cncc(OCc3ccsc3)n2)cc1` [Compound 134]: under setting [1], the “COX2 2 minutes pge2/pge2d4 area ratio Avg. LLE” value is reported as 4.3725. Moreover, the IC50 reads like this: under setting [2], 0.183 µM; under setting [4], 0.239 µM. Further, under setting [3], the “COX2 2 minutes pge2 area” value worked out at 4.235.
Taken in the same sequence, the figures for `CS(=O)(=O)c1ccc(-c2cncc(CCc3cccs3)n2)cc1` [Compound 225] were 3.328, 2 µM, 2.4 µM and 3.249.
Take `Cc1cocc1CNc1cccc(-c2ccc(S(C)(=O)=O)cc2)n1` [Compound 40]: under setting [1], the “COX2 2 minutes pge2/pge2d4 area ratio Avg. LLE” value came out at 4.502. Also, the IC50 reads like this: under setting [2], 0.0188 µM; under setting [4], 0.0207 µM. For the same compound, the “COX2 2 minutes pge2 area” value under setting [3] is recorded as 4.487.
In the case of `CS(=O)(=O)c1ccc(-c2cncc(OCc3ccc(F)cc3)n2)cc1` [Compound 294], the “COX2 2 minutes pge2 area” value under setting [3] is listed as 2.694. The IC50 under setting [5] came out at 5.2 µM.
In the case of `CS(=O)(=O)c1ccc(-c2cccc(OCc3ccc(Cl)s3)n2)cc1` [Compound 69], under setting [1], the “COX2 2 minutes pge2/pge2d4 area ratio Avg. LLE” value was determined as 2.722. Moreover, the IC50 is 0.0406 µM under setting [2] and 0.0288 µM under setting [4]. The “COX2 2 minutes pge2 area” value under setting [3] amounted to 2.834.
On to `CS(=O)(=O)c1ccc(-c2cccc(/C=C/c3ccoc3)n2)cc1` [Compound 247], for which, under setting [1], the “COX2 2 minutes pge2/pge2d4 area ratio Avg. LLE” value stood at 1.819. In addition, the IC50 under setting [2] is 3.36 µM. In addition, under setting [3], the “COX2 2 minutes pge2 area” value was found to be 1.724.
On to `CO/N=C(\c1ccc2ccn(-c3ccc(S(C)(=O)=O)cc3)c2n1)c1cccs1` [Compound 191], for which the IC50 under setting [2] came out at 0.735 µM and the IC50 under setting [4] was found to be 0.886 µM.
As to `CN1CC[C@@H](CNc2cncc(-c3ccc(S(C)(=O)=O)cc3)n2)C1` [Compound 306], under setting [3], the “COX2 2 minutes pge2 area” value is reported as 4.594. Also, the IC50 under setting [5] stood at 5.2 µM.
For the compound `CS(=O)(=O)c1ccc(-c2cncc(OCc3nccs3)n2)cc1` [Compound 147], the “COX2 2 minutes pge2/pge2d4 area ratio Avg. LLE” value under setting [1] is recorded as 4.543. The IC50 under setting [2] stood at 0.25 µM and the IC50 under setting [4] was determined as 0.113 µM. Further, the “COX2 2 minutes pge2 area” value under setting [3] was found to be 4.9085.
For `CS(=O)(=O)c1ccc(-c2ccnc(NCc3ccoc3)c2)cc1` [Compound 290], the IC50 under setting [5] stood at 5.2 µM.
On to `CS(=O)(=O)c1ccc(-n2ccc3ccc([C@@H](O)c4cccs4)nc32)cc1` (single isomer, unassigned) [Compound 209], for which the IC50 by setting is: under setting [2], 1.34 µM; under setting [4], 1.44 µM.
Consider `COc1cnc(-c2ccc(S(C)(=O)=O)cc2)nc1OCc1cccs1` [Compound 123], for which, under setting [1], the “COX2 2 minutes pge2/pge2d4 area ratio Avg. LLE” value was 3.569. The IC50 reads like this: under setting [2], 0.131 µM; under setting [4], 0.121 µM. The “COX2 2 minutes pge2 area” value under setting [3] was 3.5904.
Regarding `CS(=O)(=O)c1ccc(-n2ccc3ccc(NCc4ccco4)nc32)cc1` [Compound 125], the “COX2 2 minutes pge2/pge2d4 area ratio Avg. LLE” value under setting [1] is reported as 3.017. In addition, the IC50 was found to be 0.141 µM under setting [2] and 0.174 µM under setting [4]. The “COX2 2 minutes pge2 area” value under setting [3] is 2.953.
As to `CS(=O)(=O)c1ccc(-c2cncc([S+]([O-])Cc3cccs3)n2)cc1` (centres unmarked) [Compound 303], under setting [5], the IC50 came out at 5.2 µM.
With `CS(=O)(=O)c1ccc(-c2cncc(OCc3cncs3)n2)cc1` [Compound 138], under setting [1], the “COX2 2 minutes pge2/pge2d4 area ratio Avg. LLE” value amounted to 4.957. Besides, the IC50 reads like this: under setting [2], 0.202 µM; under setting [4], 0.198 µM. For the same compound, under setting [3], the “COX2 2 minutes pge2 area” value is 4.957.
With `CS(=O)(=O)c1ccc(-c2cncc(N3Cc4cccnc4C3)n2)cc1` [Compound 328], under setting [3], the “COX2 2 minutes pge2 area” value was 4.414. Besides, the IC50 under setting [5] is 5.2 µM.
Turning to `CS(=O)(=O)c1ccc(-c2cncc(OCc3ccccc3)n2)cc1` [Compound 172], under setting [1], the “COX2 2 minutes pge2/pge2d4 area ratio Avg. LLE” value is 4.174. For the same compound, the IC50 under setting [2] is 0.447 µM and the IC50 under setting [4] is 0.52 µM. Further, the “COX2 2 minutes pge2 area” value under setting [3] is recorded as 4.01.
Take `CN(Cc1ccco1)c1cccc(-c2ccc(S(C)(=O)=O)cc2)n1` [Compound 200]: under setting [1], the “COX2 2 minutes pge2/pge2d4 area ratio Avg. LLE” value is 2.819. For the same compound, the IC50 under setting [2] worked out at 1.01 µM and the IC50 under setting [4] came out at 1.38 µM. Moreover, under setting [3], the “COX2 2 minutes pge2 area” value was determined as 2.726.
For the compound `CSc1ccc(-c2cccc(NCc3ccoc3)n2)cc1` [Compound 295], the IC50 under setting [5] worked out at 5.2 µM.
Regarding `CS(=O)(=O)c1ccc(-c2cccc([C@H](O)Cc3cccs3)n2)cc1` [Compound 284], the “COX2 2 minutes pge2/pge2d4 area ratio Avg. LLE” value under setting [1] is 2.424. The “COX2 2 minutes pge2 area” value under setting [3] was 2.424. Under setting [5], the IC50 was determined as 5.2 µM.
As for `COc1ncc(NCc2ncco2)nc1-c1ccc(S(C)(=O)=O)cc1` [Compound 236], the “COX2 2 minutes pge2/pge2d4 area ratio Avg. LLE” value under setting [1] was determined as 4.092. Besides, the IC50 is, setting by setting: under setting [2], 2.54 µM; under setting [4], 2.5 µM. The “COX2 2 minutes pge2 area” value under setting [3] stood at 4.092.
Regarding `Cn1ccc(COc2cncc(-c3ccc(S(C)(=O)=O)cc3)n2)n1` [Compound 181], the “COX2 2 minutes pge2/pge2d4 area ratio Avg. LLE” value under setting [1] is 5.19. In addition, the IC50 amounted to 0.559 µM under setting [2] and 0.525 µM under setting [4]. In addition, under setting [3], the “COX2 2 minutes pge2 area” value worked out at 5.2357.
For `CS(=O)(=O)c1ccc(-c2cncc(NCc3cccs3)n2)nc1` [Compound 127], in that order: 6.121, 0.144 µM, 0.169 µM and 6.077.
As for `CS(=O)(=O)c1ccc(-c2cnnc(NCc3cccs3)c2)cc1` [Compound 233], the “COX2 2 minutes pge2/pge2d4 area ratio Avg. LLE” value under setting [1] is listed as 2.958. The IC50 under setting [2] is 2.45 µM and the IC50 under setting [4] was determined as 3.06 µM. Further, the “COX2 2 minutes pge2 area” value under setting [3] amounted to 2.953.
As to `CS(=O)(=O)c1ccc(-c2cncc(NCc3ncco3)n2)cc1` [Compound 246], the “COX2 2 minutes pge2/pge2d4 area ratio Avg. LLE” value under setting [1] is 4.306. For the same compound, the IC50 came to 3.27 µM under setting [2] and 3.41 µM under setting [4]. The “COX2 2 minutes pge2 area” value under setting [3] came out at 4.2875.
For `CS(=O)(=O)c1ccc(-c2cncc(OCc3ccco3)n2)cc1` [Compound 143], under setting [1], the “COX2 2 minutes pge2/pge2d4 area ratio Avg. LLE” value was 4.842. Also, the IC50 under setting [2] was 0.226 µM and the IC50 under setting [4] amounted to 0.216 µM. The “COX2 2 minutes pge2 area” value under setting [3] stood at 4.928.
Take `CS(=O)(=O)c1ccc(-n2ccc3ccc(OCc4cccs4)nc32)cc1` [Compound 122]: the “COX2 2 minutes pge2/pge2d4 area ratio Avg. LLE” value under setting [1] is reported as 2.212. For the same compound, the IC50 turned out to be 0.127 µM under setting [2] and 0.095 µM under setting [4]. For the same compound, the “COX2 2 minutes pge2 area” value under setting [3] is on record as 2.325.
With `CS(=O)(=O)c1ccc(-c2cccc(NCc3cocn3)n2)cc1` [Compound 254], the “COX2 2 minutes pge2/pge2d4 area ratio Avg. LLE” value under setting [1] stood at 3.075. Besides, under setting [2], the IC50 is 3.93 µM.
Consider `CS(=O)(=O)c1ccc(-c2nc(NCc3cccs3)cnc2C(=O)O)cc1` [Compound 305], for which the IC50 under setting [5] was determined as 5.2 µM.
Regarding `CS(=O)(=O)c1ccc(-c2cncc(NCc3ncc[nH]3)n2)cc1` [Compound 279], the “COX2 2 minutes pge2/pge2d4 area ratio Avg. LLE” value under setting [1] is on record as 4.334. For the same compound, under setting [3], the “COX2 2 minutes pge2 area” value was found to be 4.334. Also, the IC50 under setting [5] is 5.2 µM.
Regarding `CS(=O)(=O)c1ccc(-c2cncc(NC34CC5CC(CC(C5)C3)C4)n2)cc1` [Compound 240], the “COX2 2 minutes pge2/pge2d4 area ratio Avg. LLE” value under setting [1] was 2.7806. For the same compound, the IC50 by setting is: under setting [2], 2.82 µM; (10 minutes, readout pge2 area (counts), read-out: COX2 10 minutes pge2 area (counts) Avg. IC50) 1.31 µM. Besides, under setting [3], the “COX2 2 minutes pge2 area” value turned out to be 2.394. In addition, the “COX2 10 minutes pge2 area (counts) Avg. LLE” value (10 minutes, readout pge2 area (counts), average LLE) is 2.9969.
